Experimental findings from US20260337193A1, “SMALL MOLECULE INHIBITORS OF UBIQUITIN SPECIFIC PROTEASE 1 (USP1) AND USES THEREOF” (Insilico Medicine IP Limited, priority 2023, published 2026) are described below.

Assay [1] deals with T1, Human recombinant USP1/UAF1 (Homo sapiens, UniProt O94782).
T1 construct: purchased R & D E-568-050; host or cells: baculovirus infected Sf21 cells
Description: Enzymatic assay: USP1/UAF1 deubiquitination of Ubiquitin Rhodamine 110 (kinetic fluorescence). It is filed as biochemical. The conditions noted are these: 2 nM USP1/UAF1, 15 min preincubation at RT, HEPES pH 8.0, 500 nM Ubiquitin Rhodamine 110. The method, then:
Example A1: Enzymatic Assay
Human recombinant USP1/UAF1 expressed in baculovirus infected Sf21 cells were used (R & D, E-568-050). Test compound and/or vehicle was incubated with 2 nM of USP1/UAF1 in modified HEPES buffer pH 8.0 for 15 minutes at RT. The reaction was initiated by addition of 500 nM of Ubiquitin Rhodamine 110 (R & D, U-555-050) for kinetic reading. Slope change of fluorescence intensity was read spectrofluorimetrically at 485 nm/535 nm. Dose response of test compounds or reference compound ML-323 was analyzed by nonlinear regression of GraphPad prism software.

The subject of the next assay is MDA-MB-436 cells. Description: MDA-MB-436 breast cancer cell proliferation assay (CellTiter-Glo). The conditions noted are these: Homo sapiens, 168 h, 7 days, 37° C. It is filed as cell-based. The procedure: Example A2: MDA-MB-436 Breast Cancer Cell Culture
MDA-MB-436 cells were grown in Leibovitz's L-15 medium with 10 μg/ml insulin, 16 μg/ml glutathione, 10% FBS. Cells were passaged at subconfluence after trypsinization and maintained in incubators at 37° C. in a humidified atmosphere with 5% CO2.
Example A3: MDA-MB-436 Breast Cancer Cell Proliferation Assay
Cell proliferation was determined using CellTiter-Glo® Luminescent Cell Viability Assay (Promega, #G7573). MDA-MB-436 cells were seeded in 384-well plates and allowed to attach for 24 h. Compounds were added into 384-well plate by ECHO, and incubated at 37° C. in a humidified atmosphere with 5% CO2. After 7 days, CellTiter-Glo® was added into 384 well plates, contents were mixed on an orbital shaker at 400 g for 2 min before centrifuging the plate for 2 min at 1000 rpm. After incubation at RT for 30 min, luminescence was read on envision.
In general terms: In ATP-based viability assays light output follows the ATP content of the culture.

T1 sequence (O94782 whole entry): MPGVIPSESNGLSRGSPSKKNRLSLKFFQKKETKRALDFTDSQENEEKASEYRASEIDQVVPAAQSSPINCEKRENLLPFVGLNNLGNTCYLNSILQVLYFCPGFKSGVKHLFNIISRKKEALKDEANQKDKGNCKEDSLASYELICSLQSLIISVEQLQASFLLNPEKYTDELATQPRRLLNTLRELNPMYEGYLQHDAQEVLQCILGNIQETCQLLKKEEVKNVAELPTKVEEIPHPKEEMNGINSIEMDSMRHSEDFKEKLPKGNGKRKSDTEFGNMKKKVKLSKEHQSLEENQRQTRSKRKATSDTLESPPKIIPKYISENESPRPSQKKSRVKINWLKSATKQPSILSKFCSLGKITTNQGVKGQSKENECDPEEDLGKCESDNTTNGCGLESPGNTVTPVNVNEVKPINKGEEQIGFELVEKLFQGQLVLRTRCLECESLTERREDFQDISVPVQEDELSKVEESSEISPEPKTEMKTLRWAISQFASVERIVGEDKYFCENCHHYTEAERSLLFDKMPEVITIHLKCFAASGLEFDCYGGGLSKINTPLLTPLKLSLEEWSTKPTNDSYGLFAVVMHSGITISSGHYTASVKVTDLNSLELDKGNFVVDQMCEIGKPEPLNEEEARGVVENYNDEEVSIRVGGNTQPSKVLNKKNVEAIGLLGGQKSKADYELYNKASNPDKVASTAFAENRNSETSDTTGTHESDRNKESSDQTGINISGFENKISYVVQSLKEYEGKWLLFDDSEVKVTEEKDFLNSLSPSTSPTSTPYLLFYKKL
T1 sequence (Q8TAF3 whole entry partner): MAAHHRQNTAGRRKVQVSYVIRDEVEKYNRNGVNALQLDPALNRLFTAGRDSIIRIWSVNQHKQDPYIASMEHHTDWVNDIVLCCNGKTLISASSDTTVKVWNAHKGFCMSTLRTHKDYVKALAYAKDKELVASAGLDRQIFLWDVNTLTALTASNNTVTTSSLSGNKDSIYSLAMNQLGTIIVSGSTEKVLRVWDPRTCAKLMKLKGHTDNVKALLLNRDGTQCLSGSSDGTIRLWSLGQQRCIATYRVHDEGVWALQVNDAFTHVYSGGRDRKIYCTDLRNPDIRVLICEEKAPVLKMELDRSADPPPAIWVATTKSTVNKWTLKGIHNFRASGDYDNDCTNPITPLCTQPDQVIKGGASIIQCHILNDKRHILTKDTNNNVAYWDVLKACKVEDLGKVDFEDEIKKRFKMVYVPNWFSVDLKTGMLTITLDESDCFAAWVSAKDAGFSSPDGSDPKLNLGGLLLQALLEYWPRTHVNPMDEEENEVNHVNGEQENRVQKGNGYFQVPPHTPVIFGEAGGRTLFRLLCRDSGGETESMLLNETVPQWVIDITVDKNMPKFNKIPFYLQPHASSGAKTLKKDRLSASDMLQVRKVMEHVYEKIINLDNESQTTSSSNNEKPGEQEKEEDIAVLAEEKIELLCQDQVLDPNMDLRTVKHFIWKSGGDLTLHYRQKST

What is called IC50 is the concentration that gives 50% inhibition. Regarding `Cc1nn(-c2ccccc2C(C)C)c2c1CN(c1ncc(-c3nc(C(F)(F)F)cn3C)s1)C2` [Compound 22, 2-(1-(2-isopropylphenyl)-3-methyl-4,6-dihydropyrrolo[3,4-c]pyrazol-5(1H)-yl)-5-(1-methyl-4-(trifluoromethyl)-1H-imidazol-2-yl)thiazole], the IC50 in assay [1] fell in the range of 50 to 1000 nM; with MDA-MB-436 cells it was 1000 to 10000 nM.
`COc1ncnc(C2CC2)c1-n1nc(C(F)(F)F)c2c1CN(c1ccc(-c3nc(C(F)(F)F)cn3C)cn1)CC2` [Compound 23, 1-(4-cyclopropyl-6-methoxypyrimidin-5-yl)-6-(5-(1-methyl-4-(trifluoromethyl)-1H-imidazol-2-yl)pyridin-2-yl)-3-(trifluoromethyl)-4,5,6,7-tetrahydro-1H-pyrazolo[3,4-c]pyridine]: the IC50 (in assay [1]; with MDA-MB-436 cells) was 50 to 1000 nM throughout.
In the case of `Cc1nn(-c2c(OC(F)F)ncnc2C2CC2)c2c1CCN(c1ccc(-c3nc(C(F)(F)F)cn3C)cn1)C2` [Compound 24, 1-(4-cyclopropyl-6-(difluoromethoxy)pyrimidin-5-yl)-3-methyl-6-(5-(1-methyl-4-(trifluoromethyl)-1H-imidazol-2-yl)pyridin-2-yl)-4,5,6,7-tetrahydro-1H-pyrazolo[3,4-c]pyridine], the IC50 (in assay [1]; in the assay with MDA-MB-436 cells) was 50 to 1000 nM each time.
`COc1ncnc(C2CC2)c1-n1nc(C)c2c1CN(c1ccc(-c3nc(C(F)(F)F)cn3C)c(F)n1)CC2` [Compound 25, 1-(4-cyclopropyl-6-methoxypyrimidin-5-yl)-6-(6-fluoro-5-(1-methyl-4-(trifluoromethyl)-1H-imidazol-2-yl)pyridin-2-yl)-3-methyl-4,5,6,7-tetrahydro-1H-pyrazolo[3,4-c]pyridine]: the IC50 (in assay [1]; in the assay with MDA-MB-436 cells) was less than 50 nM in each case.
Turning to `CC(C)c1ncccc1-c1nccc2c1CC(c1ccc(-c3nc(C(F)(F)F)cn3C)cc1)C2` (stereo not shown) [Compound 26, 1-(2-isopropylpyridin-3-yl)-6-(4-(1-methyl-4-(trifluoromethyl)-1H-imidazol-2-yl)phenyl)-6,7-dihydro-5H-cyclopenta[c]pyridine], the values for the IC50 (in assay [1]; in the assay on MDA-MB-436 cells) were less than 50 nM and 50 to 1000 nM, respectively.
The matching figures for `Cc1cnn(C(C)C)c1-n1nc(C)c2c1CN(c1ccc(-c3nc(C(F)(F)F)cn3C)cn1)CC2` [Compound 27, 1-(1-isopropyl-4-methyl-1H-pyrazol-5-yl)-3-methyl-6-(5-(1-methyl-4-(trifluoromethyl)-1H-imidazol-2-yl)pyridin-2-yl)-4,5,6,7-tetrahydro-1H-pyrazolo[3,4-c]pyridine]: less than 50 nM and less than 50 nM.
`COc1ncnc(C2CC2)c1-n1nc(Cl)c2c1CN(c1ccc(-c3nc(C(F)(F)F)cn3C)cn1)CC2` [Compound 28, 3-chloro-1-(4-cyclopropyl-6-methoxypyrimidin-5-yl)-6-(5-(1-methyl-4-(trifluoromethyl)-1H-imidazol-2-yl)pyridin-2-yl)-4,5,6,7-tetrahydro-1H-pyrazolo[3,4-c]pyridine]: the IC50 (in assay [1]; in the assay with MDA-MB-436 cells) was less than 50 nM in each case.
As to `CCn1cc(C(F)(F)F)nc1-c1cnc(N2CCc3c(C)nn(-c4c(C)cnn4C(C)C)c3C2)cn1` [Compound 29, 6-(5-(1-ethyl-4-(trifluoromethyl)-1H-imidazol-2-yl)pyrazin-2-yl)-1-(1-isopropyl-4-methyl-1H-pyrazol-5-yl)-3-methyl-4,5,6,7-tetrahydro-1H-pyrazolo[3,4-c]pyridine], the IC50 (in assay [1]; in the assay on MDA-MB-436 cells) was less than 50 nM throughout.
Take `Cc1cnn(C(C)C)c1-n1nc(C)c2c1CN(c1ccc(-c3nc(C(F)(F)F)cn3C)c(F)c1)CC2` [Compound 30, 6-(3-fluoro-4-(1-methyl-4-(trifluoromethyl)-1H-imidazol-2-yl)phenyl)-1-(1-isopropyl-4-methyl-1H-pyrazol-5-yl)-3-methyl-4,5,6,7-tetrahydro-1H-pyrazolo[3,4-c]pyridine]: the IC50 (in assay [1]; in the assay with MDA-MB-436 cells) was less than 50 nM in each case.
For `COc1ncnc(C2CC2)c1-c1nccc2c1CC(c1ccc(-c3nc(C(F)(F)F)cn3C)cn1)C2` (stereo not shown) [Compound 31, 1-(4-cyclopropyl-6-methoxypyrimidin-5-yl)-6-(5-(1-methyl-4-(trifluoromethyl)-1H-imidazol-2-yl)pyridin-2-yl)-6,7-dihydro-5H-cyclopenta[c]pyridine], the IC50 was in the range of 50 to 1000 nM in assay [1] and 1000 to 10000 nM in the assay with MDA-MB-436 cells.
The matching figures for `CCn1cc(C(F)(F)F)nc1-c1cnc(N2CCc3c(C)nn(-c4c(OC)ncnc4C4CC4)c3C2)cn1` [Compound 32, 1-(4-cyclopropyl-6-methoxypyrimidin-5-yl)-6-(5-(1-ethyl-4-(trifluoromethyl)-1H-imidazol-2-yl)pyrazin-2-yl)-3-methyl-4,5,6,7-tetrahydro-1H-pyrazolo[3,4-c]pyridine]: less than 50 nM and 50 to 1000 nM.
